Measurements taken from the NIST ThermoML archive (doi:10.1021/je600578u).
Numbers after ± are expanded uncertainties.

Key:
[1] = 298.15 K; 101.33 kPa; Liquid
[2] = refractive index (Na D-line) (dimensionless); conditions: 298.15 K; 101.33 kPa; Liquid; Standard Abbe refractometry

mass density [1] [kg/m3]	refractive index [2]	SMILES
873.57 ± 0.96	1.49764 ± 0.00054	c1ccccc1 [benzene]
785.27 ± 0.98	1.35928 ± 0.00052	CCO [ethanol]
